{"source": "patent US9623000B2", "about": "“Compositions and methods for treating inflammatory disorders” (priority 2008, dated 2017)", "format_in_all_cases": "in vivo, Mice/Balb/c", "key": {"[1]": {"test_system": "croton oil induced ear edema", "experiment": "Croton oil induced ear swelling, 3 hours post sensitization (Example 1)", "settings": "Hydrocortisone 600 nmol/ear; for % of Ear Thickness Inhibition (inhibition of ear swelling/edema vs Vehicle) / ear swelling (difference between the inflamed and intact ear thickness): 3 hours post croton oil; for % of Ear Thickness Inhibition (inhibition of ear swelling/edema vs Vehicle) / Mean Group Ear Swelling (mm) 3 Hours Post Croton Oil MEAN: topical 1 hour prior to and 2 hours post sensitization; for % of Ear Thickness Inhibition (inhibition of ear swelling/edema vs Vehicle): 2 mg/ml or 5 mg/ml (PEA, CBD); for Mean Group Ear Swelling (mm) 3 Hours Post Croton Oil MEAN: Amitriptyline, Topiramate, Moclobimide 2 mg/ml; for Mean Group Ear Swelling (mm) 3 Hours Post Croton Oil MEAN / ear swelling (difference between the inflamed and intact ear thickness): PEA, CBD 5 mg/ml; for ear swelling (difference between the inflamed and intact ear thickness): MEAN±SEM", "protocol": "A study was undertaken in order to evaluate the effect of topical preparations of various test items (TI) and TI combined with Croton oil on ear swelling. Ear thickness was measured before croton oil induced ear swelling and 3 hours post ear edema induction. The various TIs were applied topically 1 hour prior to ear edema sensitization and 2 hours post ear edema sensitization. The difference in ear thickness of the intact ear was subtracted from the ear thickness of the inflamed ear. This value is defined as “ear swelling”.\nSpecies/Strain: Mice/Balb/c\nPrior to sensitization animals were anesthetized. Ear thickness was measured 24 hours prior to croton oil sensitization; this measurement served as a baseline. On sensitization day, the animals were anesthetized using Ketamine and Xylazine formulation. Then, the animals were administered with TI topically. One hour later the animals were introduced to croton oil sensitization (50 μL). Two hours post croton oil sensitization the animals were administered with TI again. Three hours post croton oil sensitization the ear thickness of the animals were measured again.\nTIs were administered twice, the first dose was 1 hour prior to croton oil sensitization and the second time was 2 hours post croton oil sensitization. All TIs were dissolved in 10% Ethanol and were applied topically on the surface of the sensitized ear.\nDetermination of individual body weights of animals was made one day before sensitization phase. A single person was responsible for ear thickness measurement throughout the entire study. The ear thickness of both left and right ears was measured using analogue calipers (Instrumentation 0.01 mm L-01) on 2 occasions: 24 hours prior to croton oil sensitization, and 3 hours post croton oil sensitization.\nAll data are presented in MEAN±SEM. T-test, two tailed, unpaired was applied to all data. P value was considered significant if p<0.05.\nEar thickness was measured before Croton oil induced ear sensitization (baseline) and 3 hours post ear edema induction. Treatment with various TI was applied topically 1 hour prior to sensitization and 2 hours post induction. The difference in ear thickness of the intact ear was subtracted from the ear thickness measured of the inflamed ear. This value was referred to as ear swelling."}, "[2]": {"test_system": "croton oil induced ear edema", "experiment": "Croton oil induced ear edema, 6 hours post sensitization (Example 2)", "text": "A study was undertaken in order to evaluate the effect of topical preparations of Hydrocortisone, Betamethasone and PEA at various concentrations (as single agents and in various combinations) on ear edema in mice. […] The difference in ear thickness of the intact ear was subtracted from the ear thickness of the inflamed ear. This value is defined as “ear swelling”."}, "[3]": {"test_system": "croton oil induced ear edema", "experiment": "Croton oil induced ear edema, 6 and 9 hours post sensitization (Example 3)", "settings": "PEA 1%; for activity in inhibiting ear swelling vs. Vehicle: Betamethasone 4 μg/25 μl per ear; for Mean Left Ear Delta Thickness, Delta + 9 h vs baseline / Mean Left Ear Delta thickness, Delta + 6 h vs baseline / Mean Left Ear Thickness (mm) Day 0 (6 h post sensitization) / Mean Left Ear Thickness (mm) Day 0 (9 h post sensitization): Betamethasone EDmax 4 μg/25 μl per ear; for Mean Left Ear Thickness (mm) Day 0 (6 h post sensitization) / Mean Left Ear Thickness (mm) Day 0 (9 h post sensitization): topical 25 μl per ear prior to sensitization", "protocol": "A study was undertaken in order to determine the effect of topical application of a combined preparation of Betamethasone and PEA on ear edema in mice. Ear thickness was measured before croton oil induced ear swelling and 6 and 9 hours post ear edema induction. […]\nThe difference in ear thickness of the intact ear was subtracted from the ear thickness of the inflamed ear. This value is defined as “ear swelling”."}, "[4]": {"settings": "steroid alone at ED50: Hydrocortisone 55 μg/25 μl per ear, Betamethasone 1 μg/25 μl per ear"}, "[5]": {"settings": "steroid alone at EDmax: Hydrocortisone 200 μg/25 μl per ear, Betamethasone 4 μg/25 μl per ear"}, "[6]": {"settings": "topical, steroid alone at calculated ED50: Hydrocortisone 55 μg/25 μl per ear, Betamethasone 1 μg/25 μl per ear"}, "[7]": {"settings": "topical, steroid alone at calculated EDmax: Hydrocortisone 200 μg/25 μl per ear, Betamethasone 4 μg/25 μl per ear"}}, "note": "“And” between values parts separate entries of the source, which are not always exact repeats. Equal entries are not always repeated. Marks after values point to notes of the source that are not given here.", "data": [{"smiles": "CN(C)CCC=C1c2ccccc2CCc2ccccc21", "note": "[Amitriptyline, amitriptyline]", "values": [{"measurement": "% of Ear Thickness Inhibition (inhibition of ear swelling/edema vs Vehicle)", "setting": "[1]", "result": 62, "unit": "%"}, {"measurement": "Mean Group Ear Swelling (mm) 3 Hours Post Croton Oil MEAN", "setting": "[1]", "result": "0.248* mm"}]}, {"smiles": "C[C@H]1C[C@H]2[C@@H]3CCC4=CC(=O)C=C[C@]4(C)[C@@]3(F)[C@@H](O)C[C@]2(C)[C@@]1(O)C(=O)CO", "note": "[Betamethasone, betamethasone]", "values": [{"measurement": "Mean Left Ear Delta thickness, Delta + 6 h vs baseline", "setting": "[2]; [4]", "result": 0.043}, {"measurement": "Mean Left Ear Delta thickness, Delta + 6 h vs baseline", "setting": "[2]; [5]", "result": "0.031*"}, {"measurement": "Left Ear Thickness (mm) Study Day 0 (6 H post sensitization)", "setting": "[2]; [6]", "result": "0.30±0.008", "unit": "mm"}, {"measurement": "Left Ear Thickness (mm) Study Day 0 (6 H post sensitization)", "setting": "[2]; topical, steroid alone at calculated ED50: Hydrocortisone 55 μg/25 μl per ear, Betamethasone 1 μg/25 μl per ear, listed as Beta.", "result": "0.30 * mm"}, {"measurement": "Left Ear Thickness (mm) Study Day 0 (6 H post sensitization)", "setting": "[2]; [7]", "result": "0.29±0.005", "unit": "mm"}, {"measurement": "Left Ear Thickness (mm) Study Day 0 (6 H post sensitization)", "setting": "[2]; topical, steroid alone at calculated EDmax: Hydrocortisone 200 μg/25 μl per ear, Betamethasone 4 μg/25 μl per ear, listed as Beta", "result": "0.29 ** mm"}, {"measurement": "activity in inhibiting ear swelling vs. Vehicle", "setting": "[3]; 6 hours post sensitization", "result": "active"}, {"measurement": "activity in inhibiting ear swelling vs. Vehicle", "setting": "[3]; 9 hours post sensitization", "result": "not active"}, {"measurement": "Mean Left Ear Delta Thickness, Delta + 9 h vs baseline", "setting": "[3]", "result": "0.092#"}, {"measurement": "Mean Left Ear Delta thickness, Delta + 6 h vs baseline", "setting": "[3]", "result": "0.036**"}, {"measurement": "Mean Left Ear Thickness (mm) Day 0 (6 h post sensitization)", "setting": "[3]", "result": "0.27*** mm"}, {"measurement": "Mean Left Ear Thickness (mm) Day 0 (9 h post sensitization)", "setting": "[3]", "result": 0.33, "unit": "mm"}]}, {"smiles": "C=C(C)[C@@H]1CCC(C)=C[C@H]1c1c(O)cc(CCCCC)cc1O", "note": "[CBD, cannabidiol]", "values": [{"measurement": "ear swelling (difference between the inflamed and intact ear thickness)", "setting": "[1]", "result": "0.020±0.010", "unit": "mm"}, {"measurement": "% of Ear Thickness Inhibition (inhibition of ear swelling/edema vs Vehicle)", "setting": "[1]", "result": 72, "unit": "%"}, {"measurement": "Mean Group Ear Swelling (mm) 3 Hours Post Croton Oil MEAN", "setting": "[1]", "result": "0.240* mm"}]}, {"smiles": "C[C@]12CCC(=O)C=C1CC[C@@H]1[C@@H]2[C@@H](O)C[C@@]2(C)[C@H]1CC[C@]2(O)C(=O)CO", "note": "[Hydrocortisone, hydrocortisone]", "values": [{"measurement": "activity compared to vehicle in reducing ear thickness / ear edema", "setting": "[2]; 6 hours post sensitization, Hydrocortisone 55 and 200 μg/25 μl per ear, Betamethasone 1 and 4 μg/25 μl per ear (calculated ED50 and EDmax)", "result": "not active"}, {"measurement": "Mean Left Ear Delta thickness, Delta + 6 h vs baseline", "setting": "[2]; [4]", "result": 0.060}, {"measurement": "Mean Left Ear Delta thickness, Delta + 6 h vs baseline", "setting": "[2]; [5]", "result": 0.054}, {"measurement": "Left Ear Thickness (mm) Study Day 0 (6 H post sensitization)", "setting": "[2]; [6]", "result": 0.32, "unit": "mm"}, {"measurement": "Left Ear Thickness (mm) Study Day 0 (6 H post sensitization)", "setting": "[2]; [7]", "result": 0.31, "unit": "mm"}, {"measurement": "ear swelling (difference between the inflamed and intact ear thickness)", "setting": "[1]", "result": "0.043±0.003", "unit": "mm"}, {"measurement": "% of Ear Thickness Inhibition (inhibition of ear swelling/edema vs Vehicle)", "setting": "[1]", "result": 40, "unit": "%"}, {"measurement": "Mean Group Ear Swelling (mm) 3 Hours Post Croton Oil MEAN", "setting": "[1]", "result": 0.243, "unit": "mm"}]}, {"smiles": "O=C(NCCN1CCOCC1)c1ccc(Cl)cc1", "note": "[Moclobimide, moclobemide]", "values": [{"measurement": "% of Ear Thickness Inhibition (inhibition of ear swelling/edema vs Vehicle)", "setting": "[1]", "result": 52, "unit": "%"}, {"measurement": "Mean Group Ear Swelling (mm) 3 Hours Post Croton Oil MEAN", "setting": "[1]", "result": 0.265, "unit": "mm"}]}, {"smiles": "CCCCCCCCCCCCCCCC(=O)NCCO", "note": "[PEA, N-(2-hydroxyethyl)hexadecanamide]", "values": [{"measurement": "Mean Left Ear Delta thickness, Delta + 6 h vs baseline", "setting": "[2]; PEA 0.5% (alone or + Hydrocortisone/Betamethasone ED50)", "result": 0.135}, {"measurement": "Mean Left Ear Delta thickness, Delta + 6 h vs baseline", "setting": "[2]; PEA 1% (alone or + Hydrocortisone/Betamethasone ED50)", "result": "0.031*"}, {"measurement": "reducing ear thickness vs. Vehicle", "setting": "[2]; PEA 1% topical, 6 hours post sensitization", "result": "approximately 50%"}, {"measurement": "Mean Left Ear Delta thickness, Delta + 6 h vs baseline", "setting": "[2]; PEA 5% (alone or + Hydrocortisone/Betamethasone ED50)", "result": 0.062}, {"measurement": "Left Ear Thickness (mm) Study Day 0 (6 H post sensitization)", "setting": "[2]; topical 25 μl per ear 0.5 hour prior to sensitization, PEA 0.5% (alone or + Hydrocortisone 55 μg/25 μl or Betamethasone 1 μg/25 μl, ED50)", "result": 0.38, "unit": "mm"}, {"measurement": "Left Ear Thickness (mm) Study Day 0 (6 H post sensitization)", "setting": "[2]; topical 25 μl per ear 0.5 hour prior to sensitization, PEA 1% (alone or + Hydrocortisone 55 μg/25 μl or Betamethasone 1 μg/25 μl, ED50)", "result": "0.29±0.004 mm and 0.29 ** mm"}, {"measurement": "Left Ear Thickness (mm) Study Day 0 (6 H post sensitization)", "setting": "[2]; topical 25 μl per ear 0.5 hour prior to sensitization, PEA 5% (alone or + Hydrocortisone 55 μg/25 μl or Betamethasone 1 μg/25 μl, ED50)", "result": 0.32, "unit": "mm"}, {"measurement": "activity in inhibiting ear swelling vs. Vehicle", "setting": "[3]; 6 hours post sensitization", "result": "significant activity"}, {"measurement": "activity in inhibiting ear swelling vs. Vehicle", "setting": "[3]; 9 hours post sensitization", "result": "not active"}, {"measurement": "Mean Left Ear Delta Thickness, Delta + 9 h vs baseline", "setting": "[3]", "result": 0.147}, {"measurement": "Mean Left Ear Delta thickness, Delta + 6 h vs baseline", "setting": "[3]", "result": "0.056*"}, {"measurement": "Mean Left Ear Thickness (mm) Day 0 (6 h post sensitization)", "setting": "[3]", "result": "0.30** mm"}, {"measurement": "Mean Left Ear Thickness (mm) Day 0 (9 h post sensitization)", "setting": "[3]", "result": 0.39, "unit": "mm"}, {"measurement": "ear swelling (difference between the inflamed and intact ear thickness)", "setting": "[1]", "result": "0.035±0.012", "unit": "mm"}, {"measurement": "% of Ear Thickness Inhibition (inhibition of ear swelling/edema vs Vehicle)", "setting": "[1]", "result": 52, "unit": "%"}, {"measurement": "Mean Group Ear Swelling (mm) 3 Hours Post Croton Oil MEAN", "setting": "[1]", "result": 0.268, "unit": "mm"}]}, {"smiles": "CC1(C)O[C@@H]2[C@@H](CO[C@@]3(COS(N)(=O)=O)OC(C)(C)O[C@@H]23)O1", "note": "[Topiramate, topiramate]", "values": [{"measurement": "% of Ear Thickness Inhibition (inhibition of ear swelling/edema vs Vehicle)", "setting": "[1]", "result": 63, "unit": "%"}, {"measurement": "Mean Group Ear Swelling (mm) 3 Hours Post Croton Oil MEAN", "setting": "[1]", "result": 0.243, "unit": "mm"}]}]}
